According to patent US9658235B2, “Pi-extended acedan derivatives, their application for two-photon microscopy imaging, and their application for two-photon microscopy imaging of amyloid-beta plaque in an alzheimer's disease animal model” (POSTECH ACADEMY-INDUSTRY FOUNDATION, priority 2015, dated 2017):
Blank lines part the entries; values can stand above or below the molecule they belong to.

What was measured:
[1] = Absorption properties of two-photon absorbing fluorophores; format: physicochemical; conditions: 10 μM in ethanol solution (1%-DMSO included)
Description: More specifically, in order to determine the absorption properties of two-photon absorbing fluorophores, the inventors of the present invention filled quartz cells (114F-QS, Hellma Analytics) having a path length of 1 cm with an ethanol solution (1%-DMSO included) which included the compounds 4a to 7a (R1=R2=Me) having a concentration of 10 μM to measure absorption spectra. […] The absorption spectra were measured using an HP 8453 UV/Vis spectrophotometer.
Thereafter, a molar extinction coefficient (ε(Lmol^−1 cm^−1)) in a maximum absorption wavelength was calculated with respect to an ethanol solution (1%-DMSO included) which included the compounds 4a to 8a (R1=R2=Me) having a concentration of 10 μM, and the result is shown in FIG. 6. Referring to FIG. 6, it may be determined that the molar extinction coefficients (ε>11,500) for the two-photon absorbing fluorophores (particularly, compounds 4a to 8a (R1=R2=Me)) according to the embodiment of the present invention were larger than that (ε=10,700) of acedan known as a conventional two-photon absorbing fluorophore.

[2] = conventional acedan; cited from earlier work
[3] = Fluorescent properties (emission spectra, fluorescence quantum yield); format: physicochemical
Description: More specifically, in order to determine the fluorescent properties of two-photon absorbing fluorophores, the inventors of the present invention filled quartz cells having a path length of 1 cm with an ethanol solution (1%-DMSO included) which included the compounds 4a to 7a (R1=R2=Me) having a concentration of 10 μM to measure fluorescence spectra (fluorescence spectra were measured using a photon technical international fluorescence system). The results thereof with normalized fluorescence as a y-axis and light wavelength as an x-axis are shown in FIG. 1(B) and with fluorescence intensity as a y-axis and light wavelength as an x-axis are shown in FIG. 7.
Quartz cells having a path length of 1 cm were filled with a dichloromethane, acetonitrile, ethanol (1%-DMSO included) and PBS buffer solution (10 mM, pH 7.4, 0.1%-DMSO included) which included compound 4a (R1=R2=Me) having a concentration of 1 μM to measure fluorescence spectra.
Further, the fluorescence quantum yield was measured with respect to an ethanol solution including the compounds 4a to 8a (R1=R2=Me) having a concentration of 10 μM, and the result is shown in FIG. 6. Acedan which is mainly used was used as a comparative compound (fluorescence quantum yield, ΦF=0.52, measured in ethanol solution).

SHSY5Y cells = experiment: MTT cytotoxicity; format: cell-based; conditions: 1 hour, described as low cytotoxicity
Description: In order to determine the cytotoxicity of cells treated with the compound 4a (R1=R2=Me) and the compound 8a (R1=R2=Me), the metabolic capability of a formazan of SHSY5Y cells with respect to […] (MTT) was evaluated.
More specifically, the cells (100 μL/well) were prepared with the density of about 5×10^3 cells in each well on a 96-well plate. The cells were treated with the compound 4a (R1=R2=Me) and the compound 8a (R1=R2=Me) each having concentrations of 1, 20 and 50 μM, was incubated for 1 hour, were cleaned using a PBS buffer solution, and 25 μL of a MTT solution (5 mg/mL) was added to each well. After the cells were incubated at 37° C. for 2 hours, the media was removed, and a formazan crystal was dissolved in DMSO to measure absorbance using a plate reader. […] Accordingly, it may be determined that the cytotoxicity of the compound 4a (R1=R2=Me) and the compound 8a (R1=R2=Me) was low to be suitable for obtaining a two-photon microscope image in tissue and an animal model.

[4] = Fluorescence intensity according to pH; format: physicochemical; conditions: 10 μM, aqueous solution (1%-DMSO), pH 4 to 10, excitation 500 nm
Description: In order to determine the fluorescent properties (y-axis) of the compound 8a (R1=R2=Me) according to the pH (x-axis), quartz cells having a path length of 1 cm were filled with an aqueous solution (1%-DMSO included) which has a pH in the range of 4 to 10 and included the compound 8a (R1=R2=Me) having a concentration of 10 μM to measure the fluorescence spectrum, and the result is shown in FIG. 15.

[5] = Solubility in PBS buffer solution from absorption spectra; format: physicochemical; conditions: PBS 10 mM, pH 7.4, DMSO of less than 1%; concentrations of 1, 5 and 10 μM
Description: Quartz cells having a path length of 1 cm were filled with a PBS buffer solution (10 mM, pH 7.4, DMSO of less than 1% included) which included the compounds 4a to 7a (R1=R2=Me) each having concentrations of 1, 2, 5 and 10 μM to measure absorption spectra.
Quartz cells having a path length of 1 cm were filled with a PBS buffer solution (10 mM, pH 7.4, DMSO of less than 1% included) which included the compound 8a (R1=R2=Me) each having concentrations of 1, 5, 10, 15 and 20 μM to measure absorption spectra.

amyloid beta plaque = molecular target: T1, amyloid beta plaque (Homo sapiens, UniProt P05067); experiment: In vivo two-photon microscope imaging of amyloid beta plaque in an Alzheimer's disease animal model; design: species or system 5XFAD mice
T1 construct: tissue The Jackson Laboratory stock no; 006554; host or cells: brain of living 5XFAD (Tg6799) mice, 13 months old, imaged through a cranial window
Description: In order to observe the two-photon microscope image of tissue of mice treated with the compound 8a (R1=R2=Me), 5XFAD mice (13-months-old, The Jackson Laboratory, Bar Harbor, Me., USA; stock no. 006554, Tg6799) were used. An amyloid beta plaque is shown as a typical characteristic of Alzheimer's disease.
All animal experiments were performed after the approval from an animal testing ethics committee. In an open-skull craniotomy surgery, imaging was performed after treatment with the compound 8a (R1=R2=Me) and MeO-X04 which is a well-known amyloid beta plaque fluorophore. The mice were fixed on a stereotactic heating surface using Zoletil 50 (Virbac; intramuscular injection, 0.03 mL) as an anesthetic agent (Seoul, Republic of Korea, 37° C.). After a scalp and periosteum were removed, a hole having a diameter of 3 mm was formed at a distance 1 mm from the bregma and 1 mm from the sagittal suture of a skull, a bone was removed, and then a round coverslip was adhered thereto using Loctite 454. The exposed portion of the skull was covered with a dental acrylic, and dexamethasone (0.2 mg/kg) and carprofen (5 mg/kg) which are anti-inflammatory drugs were used before and after the surgery.
A product manufactured by Carl Zeiss Microscopy GmbH (Oberkochen, Germany; model no. LSM 7 MP two-photon laser scanning microscope system) was used as a two-photon microscope. […] Further, the photo-bleaching process images and the relative fluorescence intensity in […] images before and after irradiation with a light source with respect to the compound 8a (R1=R2=Me) and a complex compound of an amyloid beta plaque are shown in FIG. 18. Referring to FIG. 18, it may be determined that the fluorescence intensity of the compound 8a (R1=R2=Me) decreased about 40% when irradiated with a two-photon light source for 35 minutes.

amyloid beta 42 (Aβ 42) = molecular target: T2, amyloid beta 42 (Aβ 42) (Homo sapiens, UniProt P05067); experiment: Fluorescence spectra according to the presence of amyloid beta 42 and BSA; format: binding; conditions: 10 μM compound
T2 construct: according to the presence of amyloid beta 42 (Aβ 42)
Description: Quartz cells having a path length of 1 cm were filled with a PBS buffer solution (10 mM, pH 7.4, 0.1%-DMSO included) or an artificial cerebrospinal fluid (NaCl (124 mM), KCl (3 mM), NaH2PO4 (1.25 mM), MgCl2 (1 mM), NaHCO3 (36 mM), D-gluocose (10 mM), CaCl2(2 mM), 95%-O2, 5%-CO2 (by bubbler), aCSF and 1%-DMSO included) which included the compound 8a (R1=R2=Me) having a concentration of 10 μM to measure fluorescence spectra according to the presence of amyloid beta 42 (Aβ 42) and bovine serum albumin (BSA, 20 μg/mL), and the result is shown in FIG. 4. Referring to FIG. 4, it may be determined that the fluorescence intensity of the compound 8a (R1=R2=Me) was low when an amyloid beta plaque was absent, and the fluorescence intensity of the compound 8a (R1=R2=Me) increased when an amyloid beta plaque was present. […] In order to determine the fluorescent properties (y-axis) of the compound 8a (R1=R2=Me) according to the concentration of an amyloid beta plaque (x-axis), quartz cells having a path length of 1 cm were filled with a PBS buffer solution (1%-DMSO included) which included the compound 8a (R1=R2=Me) having a concentration of 10 μM and an amyloid beta plaque (0-50 μM) to measure fluorescence spectra, and the result is shown in FIG. 14.

T1 sequence (P05067 672-713 limits assumed): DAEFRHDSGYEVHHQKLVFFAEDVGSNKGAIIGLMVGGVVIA
T2 sequence (P05067 672-713 limits assumed): as above

molar extinction coefficient (ε) in a maximum absorption wavelength [1]: 10,700 Lmol^−1 cm^−1
fluorescence quantum yield ΦF ([3]; measured in ethanol solution, comparative compound): 0.52
SMILES: CC(=O)c1ccc2cc(N(C)C)ccc2c1 [acedan, 1-(6-dimethylaminonaphthalene-2-yl) ethanone]
two-photon absorption efficiency value [2]: ~100 GM

maximum emission wavelength (λem) compared with acedan ([3]; 1 μM in dichloromethane, acetonitrile, ethanol and PBS buffer solution): longer than that of conventional acedan
SMILES: CN(C)c1ccc2cc3c(cc2c1)OC1CCCC(=O)C1=C3 (stereo not shown) [compound 4a, 8-(dimethylamino)-2,3,4a-tetrahydro-1H-benzo[b]xanthene-1-one]
cytotoxicity (apoptosis) (SHSY5Y cells; 1 μM and 20 μM): 20%

fluorescence intensity according to pH [4]: low regardless of pH
solubility in a PBS buffer solution [5]: sufficient solubility
conformity of image with MeO-X04 image (amyloid beta plaque; 30 mg/kg intraperitoneal, 24 hours before imaging, 1,000 nm, MeO-X04 10 mg/kg, 780 nm): significantly high
decrease of fluorescence intensity (photo-bleaching) (amyloid beta plaque; complex with amyloid beta plaque, tissue depth 50 μm, two-photon light source for 35 minutes): about 40%
fluorescence intensity when an amyloid beta plaque was present (amyloid beta 42 (Aβ 42); Aβ42 20 μM, PBS (pH 7.4) or aCSF, low when plaque absent): increased
SMILES: CN(C)c1ccc2cc3c(cc2c1)OCC(C=C(C#N)C#N)=C3 [compound 8a, 2-(((8-dimethylamino)-2H-benzo[g]chromene-3-yl)methylene)malononitrile]
visualization of amyloid beta plaque in animal model with Alzheimer's disease (amyloid beta plaque; 30 mg/kg intraperitoneal, 13-month-old 5XFAD mice, frontal cortex, 1,000 nm, depth to 300 μm): selectively visualize an amyloid beta plaque
selective detection of amyloid beta plaque (amyloid beta 42 (Aβ 42); Aβ42 versus BSA 20 μg/mL, PBS or aCSF): selectively detected an amyloid beta plaque
cytotoxicity (apoptosis) (SHSY5Y cells; 1 to 50 μM): 20%
